From patent US20100093751A1, “Indolizineacetic Acids and Their Therapeutic Use as Ligands of the CRTH2 Receptor” (priority 2006, published 2010)

Target: T1, CRTH2 receptor (Homo sapiens, UniProt Q9Y5Y4)
T1 construct: expressed in transfected cells; host or cells: HEK (human embryonic kidney) cells, membranes
T1 sequence (Q9Y5Y4 1-395): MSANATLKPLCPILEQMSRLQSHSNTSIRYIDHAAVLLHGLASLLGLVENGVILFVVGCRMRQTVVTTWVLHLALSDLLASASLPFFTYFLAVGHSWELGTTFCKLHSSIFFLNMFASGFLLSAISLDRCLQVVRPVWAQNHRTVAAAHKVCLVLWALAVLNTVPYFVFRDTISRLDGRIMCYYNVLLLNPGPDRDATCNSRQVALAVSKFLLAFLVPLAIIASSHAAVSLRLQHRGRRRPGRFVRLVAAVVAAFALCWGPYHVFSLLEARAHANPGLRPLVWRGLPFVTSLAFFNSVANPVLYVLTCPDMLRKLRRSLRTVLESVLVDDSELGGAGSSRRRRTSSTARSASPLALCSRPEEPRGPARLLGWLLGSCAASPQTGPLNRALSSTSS
Experiment: CRTH2 radioligand binding assay ([3H]-PGD2 displacement, SPA)
Conditions: HEK cell membranes expressing the CRTH2 receptor, 1 nM [3H]-PGD2; Ki from IC50 by Cheng-Prusoff equation
Method: Compounds of the invention were tested using the following biological test method to determine their ability to displace PGD2 from the CRTH2 receptor.
Radioligand Binding Assay
The receptor binding assay is performed in a final volume of 200 μL binding buffer [10 mM BES (pH 7.4), 1 mM EDTA, 10 mM manganese chloride, 0.01% BSA] and 1 nM [^3H]-PGD2 (Amersham Biosciences UK Ltd). Ligands are added in assay buffer containing a constant amount of DMSO (1% by volume). Total binding is determined using 1% by volume of DMSO in assay buffer and non-specific binding is determined using 10 μM of unlabeled PGD2 (Sigma). Human embryonic kidney (HEK) cell membranes (3.5 μg) expressing the CRTH2 receptor are incubated with 1.5 mg wheatgerm agglutinin SPA beads and 1 nM [^3H]-PGD2 (Amersham Biosciences UK Ltd) and the mixture incubated for 3 hours at room temperature. Bound [^3H]-PGD2 is detected using a Microbeta TRILUX liquid scintillation counter (Perkin Elmer). Compound IC50 value is determined using a 6-point dose response curve in duplicate with a semi-log compound dilution series. IC50 calculations are performed using Excel and XLfit (Microsoft), and this value is used to determine a Ki value for the test compound using the Cheng-Prusoff equation.

Ki [nM]	SMILES
0.5	Cc1c(CC(=O)O)c2ccc(F)cn2c1Sc1ccc(S(=O)(=O)N2CCOCC2)cc1F [Example 1, {6-fluoro-3-[2-fluoro-4-(morpholine-4-sulfonyl)phenylsulfanyl]-2-methylindolizin-1-yl}acetic acid]
19	Cc1c(CC(=O)O)c2ccc(F)cn2c1Sc1ccc(-c2cnn(C)c2)cc1 [Example 4, {6-fluoro-2-methyl-3-[4-(1-methyl-1H-pyrazol-4-yl)phenylsulfanyl]indolizin-1-yl}acetic acid]
